Reference: paper PMC12612596, “Real‐time FRET assay for monitoring detyrosination by TMCP1 and VASH2” (Protein Science : A Publication of the Protein Society, 2025)
Read-outs that look alike come from different tables or passages of the source. Where a SMILES comes first, the peptide text is derived from it.

Tests used:
TMCP1 [1] = target: T1, TMCP1 (Homo sapiens, UniProt Q68EN5); settings: tubulin as substrate; ref Nicot et al., 2023; cited from earlier work
T1 construct: TMCP1 open Reading Frame (ORF) was cloned into pET28A+; 6His (N); made in house; host or cells: Escherichia coli BL21 Star (DE3)
T1 sequence (Q68EN5 1-471): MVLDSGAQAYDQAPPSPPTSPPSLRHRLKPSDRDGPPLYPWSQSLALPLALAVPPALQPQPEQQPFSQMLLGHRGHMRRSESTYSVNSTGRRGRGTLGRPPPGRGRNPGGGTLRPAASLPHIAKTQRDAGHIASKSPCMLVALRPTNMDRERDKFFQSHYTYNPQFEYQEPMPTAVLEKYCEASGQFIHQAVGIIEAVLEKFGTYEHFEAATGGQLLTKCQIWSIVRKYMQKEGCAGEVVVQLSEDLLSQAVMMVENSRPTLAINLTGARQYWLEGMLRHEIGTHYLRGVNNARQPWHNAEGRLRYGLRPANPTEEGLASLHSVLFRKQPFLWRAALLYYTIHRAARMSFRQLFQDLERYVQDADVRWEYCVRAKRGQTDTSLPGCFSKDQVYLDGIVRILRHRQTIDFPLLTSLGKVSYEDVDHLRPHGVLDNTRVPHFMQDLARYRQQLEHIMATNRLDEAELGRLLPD
Method: In addition, considering that TMCP1 is a metallocarboxypeptidase, its metal ion dependency was also assessed (Figure 4e). First, the metal ions present in the active site of TMCP1 were chelated with 50 μM EDTA. Subsequently, ZnCl₂, MnCl₂, or CoCl₂ were added at varying concentrations (>50 μM) to determine their impact on the restoration of enzymatic activity.

TMCP1 [2] = target: T1, TMCP1; experiment: TMCP1 FRET enzyme activity assay under altered conditions (inhibitors, salts, metal ions, buffers, competition; substrate FS2); format: biochemical; settings: for Effect of divalent metal ion on TMCP1 activity (in words): TMCP1 pre-treated with 50 μM EDTA 10 min at room temperature, metal ion >50 μM, 30 min at 37 °C, then FS2
Method: Protein production and purification steps were previously described (Nicot et al., [2023]). Briefly, TMCP1 open Reading Frame (ORF) was cloned into pET28A+ to produce 6His N‐terminally tagged TMCP1. Transformed Escherichia coli strain BL21 Star (DE3) was grown at 37°C until the optical density (OD600) reached 0.6; then the culture was induced with 0.5 mM isopropyl‐β‐d‐thiogalactoside (IPTG) overnight at 18°C. Cells were pelleted for 15 min at 5000 g and resuspended in a 50 mM Tris–HCl buffer (pH 7.4), 500 mM NaCl, 2 mM TCEP, 0.1% Tween. Cell lysis was performed by sonication followed by centrifugation at 20,000×g for 30 min at 4°C. The supernatant was incubated with pre‐washed Ni‐NTA agarose beads (Qiagen) at 4°C for 2 h. Beads were washed extensively in lysis buffer supplemented with 20 mM imidazole and 0.1% Triton. Elutions were performed in a 50 mM Tris–HCl buffer (pH 7.5), 500 mM NaCl, 250 mM imidazole and 1 mM TCEP. The eluted fractions containing proteins were dialyzed overnight at 4°C against 50 mM Tris–HCl buffer (pH 7.5), 300 mM NaCl, 1 mM TCEP using 10 kDa dialysis cassettes. The dialyzed samples were then concentrated and buffer‐exchanged in a 50 mM Tris–HCl buffer (pH 7.5), 200 mM NaCl, 1 mM TCEP using 10 kDa Amicon centrifugal filter units (Amicon Ultra‐4 Merck Millipore). TMCP1 was then snap frozen and stored at −80°C in aliquots.
For each experiment, a fresh stock solution of the fluorescent peptide substrates (5 mM in DMSO), was prepared and protected from light. […] VASH2/SVPB was used at a final concentration of 235 nM, obtained by diluting a 94 μM stock solution (stored at −80°C) at a 1:400 ratio. Enzymatic kinetics experiments were performed in triplicate by measuring the fluorescence of the FRET peptide substrates cleaved by the two enzymes. The cleavage releases a nitro‐tyrosine residue, which acts as a quencher. Its removal leads to an increase of fluorescence, which was quantified fluorometrically (Ex/Em = 320/420 nm) using a SpectraMax i3x (Molecular Devices) microplate reader.
Data were analyzed using GraphPad Prism, with a dedicated curve fitting applied. A Gaussian bell‐shaped curve was used for the optimal pH study, and dose–response inhibition curves were generated by plotting the concentration of NaCl, EDTA, NS3, etc., against the normalized initial velocity (Vi) corresponding to enzyme activity. Data were normalized so that the curve ranged from 100 to 0% activity.
Optimal pH was established using a 50 mM Tris–HCl buffer, with the pH adjusted to the desired value (ranging 4–11) using 0.1 M NaOH or HCl solutions. For the ionic strength experiments, a 500 mM NaCl stock solution in a 50 mM Tris–HCl buffer was used as a starting point for serial dilution (500–0 mM). For EDTA analysis, a 10 mM stock solution was prepared and fully solubilized by vigorous stirring at 80°C. EDTA (0.004 to 400 μM) was then incubated with TMCP1, for 30 min at 37°C before adding the fluorescent substrate and starting the fluorescence measurement. Subsequently, an identical experiment was conducted using 2‐fold serial dilutions to refine the curve around the previously determined IC50.
For metal ion dependency assays, the enzyme was first incubated with 50 μM of EDTA for 10 min at room temperature. Then, serial dilutions were performed from 100 mM stock solutions of each metal ion (ZnCl₂, CoCl₂, and MnCl₂.).
Finally, the competition assay was performed similarly, except that the 96‐well plate was kept on ice during the serial dilution of the NS3 substrate and its addition into the wells.

VASH1/SVBP = experiment: LC-MS analysis of NS3 cleavage by VASH1/SVBP; format: biochemical
[3] = target: Tubulin MetalloCarboxyPeptidase 1 (TMCP1) (UniProt Q68EN5)
VASH1 = tested on: VASH1; parameters: method as in Feral et al., 2025; settings: ref Feral et al., 2025; cited from earlier work
VASH2/SVBP = target: T2, VASH2/SVBP (Homo sapiens, UniProt Q86V25+Q8N300); experiment: VASH2 FRET inhibition assay (substrate FS2); format: biochemical
T2 construct: His (N); T7 (N); made in house; host or cells: Escherichia coli BL21 Star (DE3)
T2 sequence (Q86V25 whole entry, species assumed): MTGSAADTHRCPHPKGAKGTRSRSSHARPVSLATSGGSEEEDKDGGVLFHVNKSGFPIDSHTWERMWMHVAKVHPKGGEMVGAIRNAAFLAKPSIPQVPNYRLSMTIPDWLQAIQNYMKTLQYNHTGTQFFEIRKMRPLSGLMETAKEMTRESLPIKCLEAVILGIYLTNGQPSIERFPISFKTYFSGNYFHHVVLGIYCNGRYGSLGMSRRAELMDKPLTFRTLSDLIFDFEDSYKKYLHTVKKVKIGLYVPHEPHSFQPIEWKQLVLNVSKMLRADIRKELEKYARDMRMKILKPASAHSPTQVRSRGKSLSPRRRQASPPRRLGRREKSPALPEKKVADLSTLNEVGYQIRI
T2 sequence (Q8N300 whole entry partner, species assumed): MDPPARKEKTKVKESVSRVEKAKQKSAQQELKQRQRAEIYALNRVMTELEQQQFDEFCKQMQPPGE
Method: Serial dilutions were prepared prior to enzyme addition (235 nM final concentration) to minimize time‐dependent inhibition effects and to avoid premature covalent modification of the enzyme during the dilution steps. […]

Q: With `[Cl-].[Cl-].[Co+2]` [CoCl₂] as the compound, how does the “Effect of metal ion on TMCP1 (immunoblot, in words)” value (shortened to “Effect of metal ion on TMCP1”) (TMCP1 [1]) read?
A: strongly activated

Q: What about the “Effect of divalent metal ion on TMCP1 activity (in words)” value (“Effect of divalent metal ion” below) (TMCP1 [2]; n = 3) of the same compound?
A: highly effective not only at restoring but even increasing TMCP1 activity, although its effectiveness was reduced at higher concentrations

Q: And the “Effect of divalent metal ion” value (TMCP1 [2]; n = 3, listed as Co^2+)?
A: enhance its activity in a concentration‐dependent manner

Q: For `O=C(O)CN(CCOCCOCCN(CC(=O)O)CC(=O)O)CC(=O)O` [EGTA, reference compound], which “TMCP1 activity with EGTA (in words)” value (TMCP1 [2]; 1 mM EGTA in Tris-HCl buffer) is on record?
A: complete loss of enzymatic activity

Q: With `CC(=O)N[C@H](C(=O)N[C@@H](CCC(=O)O)C(=O)NCC(=O)N[C@@H](CCC(=O)O)C(=O)NCC(=O)N[C@@H](CCC(=O)O)C(=O)N[C@@H](CCC(=O)O)C(=O)N[C@@H](CCC(=O)O)C(=O)NCC(=O)N[C@@H](CCC(=O)O)C(=O)N[C@@H](CCC(=O)O)C(=O)N[C@@H](Cc1ccc(O)cc1)C(=O)O)C(C)C` [NS3] (Ac-VEGEGEEEGEEY-OH) as the compound, how does the “Cleavage of NS3 by VASH1 by LC-MS (in words)” value (VASH1/SVBP) read?
A: no activity was detected

Q: What about the “Affinity relative to fluorescent peptide (in words)” value (TMCP1 [2]; NS3 vs FS2 (100 μM) in competition assay) of the same compound?
A: slightly higher affinity

Q: And the IC50 (TMCP1 [2]; read-out: IC50, TMCP1 competition by NS3)?
A: ~62 µM

Q: For “NS3 (natural substrate 3, non-fluorescent peptide of the last 12 amino acids of the α-tubulin C-terminal tail)”, which IC50 of the competing non-fluorescent peptide NS3 on cleavage of the fluorogenic substrate FS2 (100 μM) by TMCP1, real-time FRET enzymatic assay [3] is on record?
A: 62 µM

Q: Which “TMCP1 activity with MgCl₂ (in words)” value (TMCP1 [2]; 80 mM PIPES with or without 1 mM MgCl₂, compared to 50 mM Tris-HCl) does the source give for `[Cl-].[Cl-].[Mg+2]` [MgCl₂] here?
A: enzyme activity comparable to those obtained in 50 mM Tris–HCl

Q: Which “Effect of metal ion on TMCP1” value (TMCP1 [1]) does the source give for `[Cl-].[Cl-].[Zn+2]` [ZnCl₂] here?
A: inhibited

Q: What about the “Effect of divalent metal ion” value (TMCP1 [2]; n = 3) of the same compound?
A: did not restore the enzymatic activity

Q: What about the “Effect of divalent metal ion” value (TMCP1 [2]; n = 3, listed as Zn^2+) of the same compound?
A: inhibits the enzyme

Q: With `O=C(O)CN(CCN(CC(=O)O)CC(=O)O)CC(=O)O` [EDTA, reference compound] as the compound, how does the IC50 (TMCP1 [2]) read?
A: 2.15 µM

Q: With `[Cl][Mn][Cl]` [MnCl₂] as the compound, how does the “Effect of metal ion on TMCP1” value (TMCP1 [1]) read?
A: strongly activated

Q: What about the “Effect of divalent metal ion” value (TMCP1 [2]; n = 3) of the same compound?
A: also restored the activity but unlike CoCl₂, it did so in a concentration‐dependent manner

Q: And the “Effect of divalent metal ion” value (TMCP1 [2]; n = 3, listed as Mn^2+)?
A: enhance its activity in a concentration‐dependent manner

Q: Which “Reduction in TMCP1 activity by NaCl” value (TMCP1 [2]; NaCl around 100 mM in 50 mM Tris-HCl, FS2, n = 3) does the source give for `[Cl-].[Na+]` [NaCl] here?
A: 50%

Q: And the “Inhibition of TMCP1 by NaCl (in words)” value (TMCP1 [2]; NaCl concentrations above 200 mM, n = 3)?
A: almost complete inhibition

Q: Which results are given for `CCOC(=O)C1OC1C(=O)N[C@@H](Cc1ccc(O)cc1)C(=O)O` (some centres unmarked) [EpoY]?
A: VASH1 inhibition (in words) (VASH1): blocking VASH1; IC50 (VASH2/SVBP): 0.42 µM
